Test results taken from patent US20230348444A1, “NOVEL COMPOUNDS FOR USE IN THE TREATMENT OF DISEASES ASSOCIATED WITH ANGIOTENSIN II” (Vicore Pharma AB, priority 2020, published 2023).

How the values were obtained:
[1] = target: T1, human recombinant AT1 receptor (Homo sapiens, UniProt P30556); test: Binding to AT1 receptor, radiometric scintillation assay (Eurofins protocol ITEM26 and ITEM24); conditions: read-out: AT1 IC50, ligand 125I (sar1,Ile8)-AT-II, 1 and 10 uM, 2-4 h at 37° C.
T1 sequence (P30556 1-359): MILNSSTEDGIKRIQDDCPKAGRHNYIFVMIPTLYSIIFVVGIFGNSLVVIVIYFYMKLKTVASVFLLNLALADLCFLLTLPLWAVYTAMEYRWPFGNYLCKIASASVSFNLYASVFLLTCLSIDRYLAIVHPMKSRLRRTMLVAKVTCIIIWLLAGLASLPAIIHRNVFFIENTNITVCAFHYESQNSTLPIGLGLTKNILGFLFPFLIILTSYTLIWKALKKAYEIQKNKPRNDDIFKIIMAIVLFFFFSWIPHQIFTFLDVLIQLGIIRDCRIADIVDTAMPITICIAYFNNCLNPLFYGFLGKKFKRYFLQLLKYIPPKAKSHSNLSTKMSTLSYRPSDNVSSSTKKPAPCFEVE
Protocol: (§3) Compounds were evaluated for binding to the human recombinant AT2 and AT1 receptor according to Eurofins protocol ITEM26 and ITEM24 using a radiometric scintillation assay.

CYP2C9 = CYP2C9 (Homo sapiens, UniProt P11712); test: CYP inhibition in human liver microsomes (Eurofins protocol ITEMG232); assay type: in vitro ADME; parameters: using isoform-specific substrates incubated with human liver microsomes; tissue Eurofins ITEMG232; host or cells: human liver microsomes; conditions: substrate diclofenac; for CYP2C9 Inh %: 10 μM; for inhibition at 10 µM: probe diclofenac, read-out: CYP2C9 Inh %
Protocol: (§1) The following substrates were used; CYP1A phenacetin, CYP2B6 bupropion, CYP2C8 paclitaxel and amodiaquine, CYP2C9 diclofenac, CYP2C19 omeprazole, CYP2D6 dextromethorphan, CYP3A midazolam and testosterone.
(§2) At the end of the incubation, the formation of metabolite was monitored by HPLC-MS/MS as the peak area response.

CYP2C19 = target: T2, CYP2C19 (Homo sapiens, UniProt P33261); test: as above; assay type: in vitro ADME; conditions: substrate omeprazole; for CYP2C19 Inh %: 10 μM; for inhibition at 10 µM: probe omeprazole, read-out: CYP2C19 Inh %
T2 construct: using isoform-specific substrates incubated with human liver microsomes; tissue Eurofins ITEMG232; host or cells: human liver microsomes
Protocol: as §1, §2

CYP1A = target: T3, CYP1A (Homo sapiens, UniProt P05177); test: as above; assay type: in vitro ADME; conditions: substrate phenacetin; for CYP1A Inh %: 10 μM; for inhibition at 10 µM: probe phenacetin, read-out: CYP1A Inh %
T3 construct: using isoform-specific substrates incubated with human liver microsomes; tissue Eurofins ITEMG232; host or cells: human liver microsomes
T3 sequence (P05177 2-516 limits assumed): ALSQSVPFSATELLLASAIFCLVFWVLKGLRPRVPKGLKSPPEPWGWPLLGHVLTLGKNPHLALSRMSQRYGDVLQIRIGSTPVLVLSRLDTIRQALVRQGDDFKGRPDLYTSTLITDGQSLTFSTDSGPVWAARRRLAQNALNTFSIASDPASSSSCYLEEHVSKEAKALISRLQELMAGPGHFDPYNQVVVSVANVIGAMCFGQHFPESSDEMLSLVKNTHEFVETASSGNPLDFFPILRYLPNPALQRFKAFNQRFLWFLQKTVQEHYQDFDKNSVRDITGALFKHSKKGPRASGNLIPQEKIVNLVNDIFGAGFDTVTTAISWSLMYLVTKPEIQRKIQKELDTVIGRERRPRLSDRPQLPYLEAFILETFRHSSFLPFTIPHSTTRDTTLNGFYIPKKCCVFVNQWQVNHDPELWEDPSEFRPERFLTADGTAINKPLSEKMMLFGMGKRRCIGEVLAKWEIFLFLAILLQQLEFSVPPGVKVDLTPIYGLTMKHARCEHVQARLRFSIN
Protocol: as §1, §2

[2] = target: T4, human recombinant AT2 receptor (Homo sapiens, UniProt P50052); test: biochemical
T4 sequence (P50052 1-363): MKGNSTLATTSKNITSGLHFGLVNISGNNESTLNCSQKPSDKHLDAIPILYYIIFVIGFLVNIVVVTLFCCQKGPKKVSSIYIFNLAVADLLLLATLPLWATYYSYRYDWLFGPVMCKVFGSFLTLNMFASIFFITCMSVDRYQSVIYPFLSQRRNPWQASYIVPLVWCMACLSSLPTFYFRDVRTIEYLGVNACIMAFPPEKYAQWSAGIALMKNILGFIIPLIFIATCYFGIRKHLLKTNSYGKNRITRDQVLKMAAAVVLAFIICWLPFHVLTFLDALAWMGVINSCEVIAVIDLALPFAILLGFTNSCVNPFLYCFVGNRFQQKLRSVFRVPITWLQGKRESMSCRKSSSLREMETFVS
Protocol: as §3

[3] = target: T1, human recombinant AT1 receptor; test: biochemical
Protocol: as §3

Sequence of CYP2C9 (P11712 whole entry, canonical isoform): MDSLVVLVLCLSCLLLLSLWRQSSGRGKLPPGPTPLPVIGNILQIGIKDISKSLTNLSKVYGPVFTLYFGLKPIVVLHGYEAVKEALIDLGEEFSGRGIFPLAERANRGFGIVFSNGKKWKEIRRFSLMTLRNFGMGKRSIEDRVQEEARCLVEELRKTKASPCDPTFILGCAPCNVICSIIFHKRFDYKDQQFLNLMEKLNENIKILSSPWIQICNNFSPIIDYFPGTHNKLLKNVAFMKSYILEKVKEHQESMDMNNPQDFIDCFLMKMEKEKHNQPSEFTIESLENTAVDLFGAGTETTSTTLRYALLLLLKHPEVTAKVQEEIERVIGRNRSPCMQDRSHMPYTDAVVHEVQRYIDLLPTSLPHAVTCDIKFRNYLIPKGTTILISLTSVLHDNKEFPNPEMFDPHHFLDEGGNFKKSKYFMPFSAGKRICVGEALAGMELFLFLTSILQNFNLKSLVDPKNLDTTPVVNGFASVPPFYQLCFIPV
T2 sequence (P33261 whole entry, canonical isoform): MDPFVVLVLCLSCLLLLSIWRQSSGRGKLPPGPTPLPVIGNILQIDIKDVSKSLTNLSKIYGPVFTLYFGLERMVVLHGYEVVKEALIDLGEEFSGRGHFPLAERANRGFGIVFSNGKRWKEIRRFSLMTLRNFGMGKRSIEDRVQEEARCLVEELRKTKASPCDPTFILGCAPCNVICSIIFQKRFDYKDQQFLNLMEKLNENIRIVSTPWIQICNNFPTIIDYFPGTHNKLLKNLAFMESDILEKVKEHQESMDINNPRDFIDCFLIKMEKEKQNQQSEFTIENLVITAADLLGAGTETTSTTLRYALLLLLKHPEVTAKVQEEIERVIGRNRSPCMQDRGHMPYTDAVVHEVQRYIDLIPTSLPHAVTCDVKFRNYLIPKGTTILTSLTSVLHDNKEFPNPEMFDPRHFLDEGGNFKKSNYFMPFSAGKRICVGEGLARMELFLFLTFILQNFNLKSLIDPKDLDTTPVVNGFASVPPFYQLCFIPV

Compound | IC50 [1] | CYP2C9 Inh % (CYP2C9) | CYP2C19 Inh % (CYP2C19) | CYP1A Inh % (CYP1A) | IC50 [2] | IC50 [3] | inhibition at 10 µM (CYP2C9) | inhibition at 10 µM (CYP2C19) | inhibition at 10 µM (CYP1A)
CCOC(=O)NS(=O)(=O)c1sc(CC(C)C)cc1-c1ccc(Cn2ccnc2C)c(F)c1.O=C(O)C(F)(F)F [Example 1, Ethyl (3-(3-fluoro-4-((2-methyl-1H-imidazol-1-yl)methyl)phenyl)-5-isobutylthiophen-2-yl)sulfonvicarbamate trifluoroacetic acid] | > 1 µM | 64% | 37% | 37% | – | – | – | – | –
COCCOC(=O)NS(=O)(=O)c1sc(CC(C)C)cc1-c1ccc(Cn2ccnc2C)c(F)c1.O=C(O)C(F)(F)F [Example 3] | > 1 µM | 58% | 39% | −13% | – | – | – | – | –
CCc1nccn1Cc1ccc(-c2cc(CC(C)C)sc2S(=O)(=O)NC(=O)OCc2ccc(F)cc2)cc1F.O=C(O)C(F)(F)F [Example 6, 4-Fluorobenzyl (3-(4((2-ethyl-1H-imidazol-1-yl)methyl)-3-fluorophenyl)-5-isobutylthio-phen-2-yl)sulfonylcarbamate trifluoroacetic acid] | > 1 µM | 72% | 52% | 35% | – | – | – | – | –
CCOC(=O)NS(=O)(=O)c1sc(CC(C)C)cc1-c1ccc(Cn2ccnc2CC)c(F)c1.O=C(O)C(F)(F)F [Example 7, Ethyl (3-(4-((2-ethyl-1H-imidazol-1-yl)methyl)-3-fluorophenyl)-5-isobutylthiophen-2-30 yl)sulfonylcarbamate trifluoroacetic acid] | > 1 µM | 64% | 41% | 21% | – | – | – | – | –
CCOC(=O)NS(=O)(=O)c1sc(CC(C)C)cc1-c1ccc(Cn2ccnc2C(C)C)c(F)c1.O=C(O)C(F)(F)F [Example 8, Ethyl (3-(3-fluoro-4-((2-isopropyl-1H-imidazol-1-yl)methyl)phenyl)-5-isobutylthio-phen-2-yl)sulfonylcarbamate trifluoroacetic acid] | > 1 µM | 58% | 39% | −13% | – | – | – | – | –
Cc1nccn1Cc1c(F)cc(-c2cc(CC(C)C)sc2S(=O)(=O)NC(=O)OCCO)cc1F [Example 18, 2-Hydroxyethyl (3-(3,5-difluoro-4-((2-methyl-1H-imidazol-1-yl)methyl)phenv1)-5-isobutylthiophen-2-yl)sulfonylcarbamate] | 16 µM | 77.0% | 5.9% | 15.2% | – | – | – | – | –
Cc1nccn1Cc1ccc(-c2cc(CC(C)C)sc2S(=O)(=O)NC(=O)OCCOC(=O)C(C)(C)C)cc1F [Example 19, 2-((((3-(3-Fluoro-4-((2-methyl-1H-imidazol-1-yl)methyl)phenyl)-5-isobutylthiophen-2-yl)sulfonyl)carbamoyl)oxy)ethyl pivalate] | – | – | – | – | 0.0041 µM | 9 µM | 62.3% | 54.1% | 84.3%
CC(C)Cc1cc(-c2ccc(Cn3ccnc3C(C)(C)C)c(F)c2)c(S(=O)(=O)NC(=O)c2ccccn2)s1 [Example 27, N-((3-(4-((2-(Tert-Butyl)-1H-imidazol-1-yl)methyl)-3-fluorophenyl)-5-isobutylthio-phen-2-yl)sulfonyl)picolinamide] | – | – | – | – | 0.00182 µM | 2.3 µM | 58.4% | 43.2% | 29%
